Assay results taken from US8759300B2, “Polypeptides and methods of use” (The Research Foundation for the State University of New York, priority 2007, dated 2014).
No end group written: not given here.

Legend:
FN-null cells = experiment: FN-null cell assay, peptides added directly to medium on FNIII8-11; type: cell-based, mouse; settings: peptide added directly to media with or without PDGF-BB
Description: FIG. 6. FN-null fibroblast response to soluble, unconjugated P5 (SEQ ID NO:37). FN-null cells were cultured at 4,000 cells/well in 96 well plates precoated with 0.125 mM of FNIII8-11 in DMEM for 4 hrs, and then further incubated in DMEM+2% BSA with or without the indicated concentrations of Peptide 5 at 37° C. for 3 days. Cells were counted in three 10× fields in each of 4 wells (mean±SD, n−12).
Scrambled variants of peptides 1 and 5 had no activity in these assays.
Variants of peptide 5 derived from fibronectin were generated by removing one amino acid at a time from the N-terminus or C-terminus of Peptide 5 (Table 2). These peptides (P12-P24) were added directly to medium with or without PDGF-BB.

AHDF cells = experiment: AHDF proliferation response to PDGF-BB, XTT assay; type: cell-based, human; settings: 30 ng/mL PDGF-BB, 1 week
Description: FIG. 7. […] AHDF cells were cultured at 4,000 cells/well in uncoated 96-well plates. Cells were incubated in DMEM for 4 hrs, and then further incubated in DMEM, 2% BSA, 30 ng/mL PDGF-BB with and without Peptide 5 (P5) at 37° C. for 1 week. Proliferation was estimated by the XTT assay (Promega) according to the manufacturer's instructions (mean±SD, n=4).

[1] = test system: TGF-β1 binding to intact human plasma FN; experiment: Inhibition of I125 TGF-β1 binding to immobilized FN by growth factor peptide; settings: increasing concentrations of peptide; 25° C., 2 hours
Description: (§1) FIG. 9. Inhibition of TGF-β1 and PDGF-BB binding to intact human plasma FN with TGF-β1 and PDGF-BB FN-binding peptides, respectively. FN was adsorbed onto tissue culture plastic at a concentration of 0.125 μM and then excess protein-binding sites of the plastic blocked with 2% bovine serum albumin. Growth factor labeled with I^125 was incubated with FN-coated plates at 25° C. for 2 hours in the presence or absence of peptide. Data was calculated as [(GF binding in presence of peptide−background)/(GF binding in absence of peptide-background)]×100. n=3.
(§2) Two of these synthetic peptides (homologous to TGF-β1 and homologous to PDGF-BB) inhibit TGF-β1 and PDGF-BB binding to FN respectively (FIG. 9). Inhibition of TGF-β1 and PDGF-BB binding to intact human plasma FN was determined as follows. FN was adsorbed onto tissue culture plastic at a concentration of 0.125 μM and then excess protein-binding sites of the plastic blocked with 2% bovine serum albumin. Growth factor labeled with I^125 was incubated with FN-coated plates at 25° C. for 2 hours in the presence or absence of peptide. For example, relative binding of TGF-β1 to immobilized FN was determined for increasing concentrations of the synthetic peptide homologous to TGF-β1. […] For example, relative binding of PDGF-BB to immobilized FN was determined for increasing concentrations of the synthetic peptide homologous to PDGF-BB. […]

[2] = test system: PDGF-BB binding to intact human plasma FN; experiment: Inhibition of I125 PDGF-BB binding to immobilized FN by growth factor peptide; settings: increasing concentrations of peptide; 25° C., 2 hours
Description: as §1, §2

Chain of PDGF-BB binding to intact human plasma FN (P02751 610-812 limits assumed): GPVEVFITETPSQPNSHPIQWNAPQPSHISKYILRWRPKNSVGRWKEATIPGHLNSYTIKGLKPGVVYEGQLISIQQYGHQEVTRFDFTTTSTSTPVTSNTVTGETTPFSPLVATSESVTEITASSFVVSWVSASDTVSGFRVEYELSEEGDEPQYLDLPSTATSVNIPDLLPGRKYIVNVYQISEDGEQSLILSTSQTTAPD
Chain of PDGF-BB binding to intact human plasma FN (P02751 1815-2080 limits assumed): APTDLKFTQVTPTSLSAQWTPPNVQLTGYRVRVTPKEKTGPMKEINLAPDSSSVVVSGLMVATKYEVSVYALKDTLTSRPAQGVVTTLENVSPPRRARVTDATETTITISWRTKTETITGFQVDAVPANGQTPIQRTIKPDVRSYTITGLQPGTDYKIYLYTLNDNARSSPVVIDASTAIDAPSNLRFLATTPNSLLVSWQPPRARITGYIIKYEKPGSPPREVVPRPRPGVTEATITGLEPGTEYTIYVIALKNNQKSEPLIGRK
Chain of TGF-β1 binding to intact human plasma FN (P02751 610-812 limits assumed): as the sequence (P02751 610-812 limits assumed) above
Chain of TGF-β1 binding to intact human plasma FN (P02751 1815-2080 limits assumed): as the sequence (P02751 1815-2080 limits assumed) above

With QPSHISKYILRWRPK [P5, QPSHISKYILRWRPK] the “FN null cell survival and proliferation” value (FN-null cells) was “supported FN null cell survival and proliferation” and the “AHDF proliferation response to PDGF-BB” value (AHDF cells) was “enhanced AHDF proliferation response to PDGF-BB”.
For “CCVRQLYIDFRKDLG [synthetic peptide homologous to TGF-β1]”, the “Proportion of full-length TGF-β1 bound to immobilized FN” value [1] was “decreased with increasing concentration”.
For “CKTRTEVFEISRRLI [synthetic peptide homologous to PDGF-BB]”, the “Proportion of full-length PDGF-BB bound to immobilized FN” value [2] was “decreased with increasing concentration”.
